Measured values from patent US20250295627A1 (Leibniz-Institut Fuer Neurobiologie, priority 2022, published 2025).
Read-outs that look alike come from different tables or passages of the source.

Experiments:
[1] = tested on: TBA2.1 mice; assay: Open-field test; format: in vivo, mouse
From the text: (§1) . For TBA2.1 mice (both sexes), treatment started at the age of 4 weeks. The animals were group housed and force fed for 4 weeks. […] Treatment in 5×FAD male mice started at the age of 12 weeks. Here, animals were single housed right away and given a choice between voluntary and forced feeding. […] During the course of the 7th week of treatment, animals were either subjected to perfusion to obtain their brains for subsequent immunohistochemistry or they were culled to obtained native brains for electrophysiological recordings.
Locomotor activity was assessed using the Open-field test, performed in a square arena (45×45×45 cm) made of black Plexiglas and dimly illuminated. The animals were placed in the center of the arena, and were left to explore it for 10 min. The sessions were video recorded, and the distance travelled in the maze as well as the speed was tracked with ANY-maze Software 7.0 (Stoelting Co). Data were analyzed in 1 min bins.

[2] = tested on: TBA2.1 mice; assay: Neuronal loss (NeuN-positive cells) in CA1 after oral Nitarsone; format: in vivo, mouse; details: versus vehicle-treated littermates
Procedure: Animals were anesthetized with ketamine/xylazine (Medistar) and transcardially perfused with 0.9% saline followed by 4% PFA. The brains were post-fixed in 4% PFA in PBS overnight, followed by immersion in 0.5 M sucrose for 24 h and then 1M sucrose for another 1 to 2 days or until the brains were sunken down. The brains were snap-frozen and cut into 35 μm thick coronal cryosections (Leica CM3050S, Leica-Microsystems). The sections were blocked in a buffer (0.3% TX-100, 10% NGS in PBS) for 30 min at RT, and incubated with primary antibodies diluted in the blocking solution, overnight at 4° C. Secondary antibodies were applied for 2 h at RT. Sections were counterstained with DAPI and mounted in Mowiol 4-88 (Merck Chemicals). For the detection of Aβ, the heat-based antigen retrieval method was used. […]
All quantifications were done within the distal CA1 region of the hippocampus. […] CREB and pCREB immunoreactivity of every single nucleus in a 100 μm stretch was measured in arbitrary units of pixel intensity. […] The neuronal loss was quantified based on NeuN staining (the number of neurons/CA1 length). For the quantification of microglia and astrocytes the number of cells based on overlaid DAPI and Iba-1 or GFAP signal was quantified within the rectangular ROI. Aβ plaques were counted in the region where the neuronal loss was quantified.

[3] = tested on: GluA1 AMPA-receptors; assay: Synaptic surface expression of GluA1 AMPA-receptors in hippocampal neurons; format: cell-based, rat; details: 5 μM Nitarsone with 500 nM Aβ1-42, 48 h
Procedure: Hippocampal and cortical cultures were prepared from Wistar rat embryos (E18) of mixed sex as described previously (Spilker et al., 2016). Briefly, dissected were digested for 15 min with trypsin at 37° C. Neurons were plated on plastic 12-well dishes (Greiner) on glass coverslips coated with poly-L-lysine (Sigma-Aldrich) at a density of 60 000 cells/well in DMEM medium (Gibco, Thermo Fisher Scientific) supplemented with 10% FCS, 1× penicillin/streptomycin, and 2 mM glutamine. After 1 h incubation (at the 37° C., 5% CO2, 95% humidity) cells were kept in BrainPhys medium supplemented with 1% SM1 (Stemmcell Technologies), 0.5 mM Glutamine (Gibco) at 37° C., 5% CO2 and 95% humidity. […]
For quantitation of nuclear staining intensity (pCREB or CREB) somatic regions were sequentially scanned using the 63× objective (Leica) in both: Leica TCS SP8-STED and Leica TCS SP5 systems. […] Unprocessed images were analysed using Fiji/ImageJ software (Schindelin et al., 2012). For visualization of the quantified channel a fire look-up table (LUT) was used. Synaptic density was quantified in secondary dendrites using Fiji/ImageJ (Schindelin et al., 2012). […] Intensity of the GluA1 channel was measured in ROIs defined by a Shank3 mask as a readout for surface AMPAR expression.

[4] = tested on: hippocampal primary neurons; assay: Whole-cell voltage-clamp recording of mEPSCs; format: cell-based, rat
[5] = tested on: TBA2.1 and 5×FAD mice; assay: Novel object recognition and location; format: in vivo, mouse
From the text: as §1
The hippocampus-dependent memory was assessed using a novel object location and novel object recognition tasks. Assays were performed as described elsewhere (Andres-Alonso et al., 2019). Briefly, training and testing were done in an open field square arena made out of plastic (50 cm×50 cm). The mice were habituated in the empty arena for 20 min. Subsequently, 2 identical objects were introduced to the maze and the animals could explore the objects in 2 training session, 20 min each. 2 h afterwards, in the memory test phase, one object was replaced with an unfamiliar, unknown object (novel object recognition). Afterwards, the location of one object was changed ([…]). During all sessions, the amount of time the animals explored the objects was recorded, and a discrimination index was calculated using the formula DI=[(Tnew−Tfamiliar)/(Tnew+Tfamiliar)]*100. The arena was cleaned with 5% ethanol before and after each animal was tested.

[6] = tested on: CREB; format: in vivo, mouse; details: for CREB shutoff in dorsal hippocampal CA1: 50 mg/kg daily oral, 6 weeks
Procedure: Animals were anesthetized with ketamine/xylazine (Medistar) and transcardially perfused with 0.9% saline followed by 4% PFA. The brains were post-fixed in 4% PFA in PBS overnight, followed by immersion in 0.5 M sucrose for 24 h and then 1M sucrose for another 1 to 2 days or until the brains were sunken down. The brains were snap-frozen and cut into 35 μm thick coronal cryosections (Leica CM3050S, Leica-Microsystems). The sections were blocked in a buffer (0.3% TX-100, 10% NGS in PBS) for 30 min at RT, and incubated with primary antibodies diluted in the blocking solution, overnight at 4° C. Secondary antibodies were applied for 2 h at RT. Sections were counterstained with DAPI and mounted in Mowiol 4-88 (Merck Chemicals). For the detection of Aβ, the heat-based antigen retrieval method was used. For anti-Aβ staining, following permeabilization, brain sections were immersed into […] sodium citrate solution (Fluka, pH=9) for 30 min at 80° C. Imaging of nuclear pCREB/CREB immunoreactivities in cryosections was performed using a Leica TCS SP5 system (Leica-Microsystems). Images were acquired sequentially with a HCX ApoL20×/1.0 water objective, optical zoom 4. Sections were imaged with constant laser/detector settings along the z-axis with 400 nm step in a 512×512 pixel format.
as §1
All quantifications were done within the distal CA1 region of the hippocampus. Fiji/ImageJ software (Schindelin et al., 2012) was used to calculate maximum intensity projection from five optical sections for each channel. CREB and pCREB immunoreactivity of every single nucleus in a 100 μm stretch was measured in arbitrary units of pixel intensity. ROls were defined based on NeuN and DAPI. The neuronal loss was quantified based on NeuN staining (the number of neurons/CA1 length). For the quantification of microglia and astrocytes the number of cells based on overlaid DAPI and Iba-1 or GFAP signal was quantified within the rectangular ROI. Aβ plaques were counted in the region where the neuronal loss was quantified.

With `O=[N+]([O-])c1ccc([As](=O)(O)O)cc1` [Nitarsone, (4-nitrophenyl) arsonic acid] as the compound, how does the preference index ([1]; FIG. 11 panel L, TBA2.1 mice) read?
The preference index was “does not influence preference index”.

And the “distance travelled during open field arena exploration” value ([1]; FIG. 11 panel M, TBA2.1 mice)?
Its value is “slightly normalizes increased distance travelled”.

What about the preference index ([1]; FIG. 11 panel N, printed TBA2.1 mice) of the same compound?
The preference index was “does not influence preference index”.

What about the “distance travelled during open field arena exploration” value ([1]; FIG. 11 panel O, printed TBA2.1 mice) of the same compound?
Its value is “slightly normalizes increased distance travelled”.

And the “early neuronal cell loss” value [2]?
The value was “reduced”.

What about the “downscaling of synaptic surface expression of GluA1 AMPA-receptors” value [3] of the same compound?
Its value is “significantly attenuated”.

And the mEPSC amplitude ([4]; co-application of 5 µM Nitarsone with 500 nM Aβ1-42, 48 h)?
Its mEPSC amplitude is “restored mEPSC amplitude”.

What about the “mEPSC amplitude and frequency” value ([4]; drug alone, 5 µM, 48 h) of the same compound?
The value was “no effect on both measures”.

What about the “memory in novel location recognition task” value ([5]; 5×FAD mice) of the same compound?
The value was “rescued memory”.

And the “memory in novel object recognition task” value ([5]; 5×FAD mice)?
Its value is “rescued memory”.

And the “memory in novel location recognition task” value ([5]; TBA2.1 mice)?
The value was “rescued memory”.

And the “memory in novel object recognition task” value ([5]; TBA2.1 mice)?
Its value is “rescued memory”.

And the “CREB shutoff in dorsal hippocampal CA1” value ([6]; 5×FAD mice)?
The value was “effectively prevented CREB shutoff”.

And the “CREB immunoreactivity in NeuN positive cells in CA1” value ([6]; 5×FAD mice, 18 weeks old)?
The value was “rescues the reduction of CREB immunoreactivity”.

What about the “CREB shutoff in dorsal hippocampal CA1” value ([6]; TBA2.1 mice) of the same compound?
The value was “effectively prevented CREB shutoff”.

What about the “CREB immunoreactivity in NeuN positive cells in CA1” value ([6]; TBA2.1 mice, 11 weeks old) of the same compound?
Its value is “rescues the reduction of CREB immunoreactivity”.
